Measurements published in patent US9163018B2, “Method of treatment of age-related macular degeneration (AMD)” (Prana Biotechnology Limited, priority 2006, dated 2015).
Like-named read-outs stand apart in the source and are kept apart here.

What was measured:
[1] = Mice plasma concentration after oral dose; assay type: in vivo; settings: for Mice plasma concentration: 30 min to 4 h after single or repeat oral dose of 30 mg/kg
[2] = test system: primary cortical neuronal cultured cells; experiment: Test compound cytotoxicity, MTS assay, primary cortical neuronal cultures; assay type: cell-based, mouse; settings: for Cytotox (% viable) Neuronal cells at 1 μM: 1 μM test compound; for Cytotox (% viable) Neuronal cells at 10 μM: 10 μM test compound
Method in brief: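 Primary cortical neurons were cultured five days in Neurobasal/B27, then exposed on day six to compounds (from 2.5 mM DMSO stocks) in medium minus antioxidants, in triplicate for 4 days at 37° C. Viability was measured by MTS, 2 h at 37° C, absorbance at 560 nm.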

[3] = molecular target: T1, Abeta:Zn (25:50 μM) Synthetic Aggregations (Homo sapiens, UniProt P05067); experiment: Disaggregation of Abeta:Zn synthetic aggregates (ThT fluorescence); assay type: biochemical; settings: for Disaggregation % Aggregate reduction at 5 μM: 5 μM test compound
T1 construct: PB Compound Mediated Dissolution of Aggregated Abeta 1-42; purchased Keck Laboratory, Yale University School of Medicine
T1 sequence (P05067 672-713 limits assumed): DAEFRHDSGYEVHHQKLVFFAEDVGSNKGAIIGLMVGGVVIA
Experimental: PB Compound Mediated Dissolution of Aggregated Abeta 1-42
Abeta1-42, is available from the Keck Laboratory, Yale University School of Medicine. PBS (pH 6.6): Sigma Cat# D-8662. Zn(ZnCl2): BDH Cat#100884E. (Dissolved in water in 1 mM concentration) DMSO: Ajax Cat#2225. Thioflavin T: Sigma Cat# T-3516. (Dissolved in water in 1 mM concentration)
By way of example of an amyloid composition, Abeta is dissolved in distilled water and peptide concentration is assessed by measured absorption at 214 nm in UV spectrometer. An aggregation reactive mixture (per one concentration of one testing compound) is set us as follows: Abeta: 25 μM, ZnCl2 50 μM, ThT 50 μM, PBS to make up to 500 μl. The tube is wrapped with foil and incubated at 37 degrees by rotation for 24 hours. A serial dilution of each test compound is made up in DMSO, for example: 100 μM, 500 μM, 1000 μM, 2500 μM and 5000 μM. The final concentrations are 1, 5, 10, 25 and 50 μM, 5 μl of each of these compounds is placed in a centrifuge tube and 5 μl of DMSO is added to both negative and positive control tubes. 495 μl of aggregates (after 24 hours incubation) is added to the centrifuge tube. The negative control is PBS plus ZnCl2 and ThT and DMSO. The positive control is aggregates plus DMSO. The tubes are incubated at 37 degrees for further 2 hours with rotation. Samples are measured for ThT fluorescence using an LS55 (Perkin Elmer) fluorimeter in a cuvette (500 μl volume). The excitation wavelength is 450 nm and the emission wavelength is 480 nm. Data are analyzed using graph pad prism program. The tested compounds included so called “PB” compounds.

[4] = test system: M17 human neuroblastoma cells; experiment: Cytotoxicity, M17 human neuroblastoma cells; assay type: cell-based; settings: for Cytotox (% viable) M17 cells at 1 μM: 1 μM test compound; for Cytotox (% viable) M17 cells at 10 μM: 10 μM test compound
Experimental: Assay 3. MTS Assay for Cell Viability
Cell viability is determined using the MTS assay. Culture medium is replaced with fresh neurobasal medium plus B27 supplements minus antioxidants. 1/10th volume MTS solution (Cell Titre 96 Aqueous One, Promega Corporation) and incubated at 37° C., 2 hrs. 200 microliter aliquots are measured with a spectrophotometer at 560 nm.

[5] = Toxicity, visual observations in mice; settings: duration and visual observations
Aβ 1-42 = molecular target: T2, Aβ 1-42 (Homo sapiens, UniProt P05067); experiment: Fluorometric H2O2 assay (inhibition of Abeta H2O2 production); assay type: biochemical
T2 construct: The reaction solutions contained Aβ 1-42 at concentrations
T2 sequence (P05067 672-713 limits assumed): as above
Method in brief: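 Reactions in PBS pH 7.4 at 37 C for 60 min, containing Aβ, copper and test compound. H2O2 output read as fluorescence of HRP-coupled deacetylated DCF. Fluorescence converted to H2O2 concentration via H2O2 standards.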

[6] = test system: Abeta in extract of post-mortem human AD brain tissue; experiment: BAS: human brain amyloid solubilization assay; assay type: biochemical
Experimental: Assay 5. Human Brain Amyloid Solubilization Assay
This assay was performed in order to assess the ability of a test compound to mobilise Aβ, as an example form of amyloid, from the insoluble to the soluble phase of an extract of tissue from post mortem human AD brain.
Up to 0.5 g of plaque-bearing cortex without meninges was homogenized using a DIAX 900 homogenizer (Hendolph and Co, Kelheim, Germany) or other suitable device for three 30-second periods at full speed in 2 ml of ice-cold phosphate-buffered saline, pH 7.4. To obtain the phosphate-buffered saline-extractable fraction, the homogenate was centrifuged at 100,000×g for 30 min and the supernatant removed. Alternatively, the tissue was freeze dried then pulverized to form a powder which was then weighed out into aliquots for extraction as above. Supernatant, either freeze-dried and resuspended or in unconcentrated form, was dissolved in 200 μl of Tris-Tricine sodium dodecyl sulfate (SDS) sample buffer pH 8.3 containing 8% SDS, 10% 2-mercaptoethanol. Aliquots (10 μl) were then boiled for 10 minutes before SDS-polyacrylamide gel electrophoresis. The insoluble fraction of the cortical samples was obtained by resuspending the initial pelleted sample in 1 ml of phosphate-buffered saline, A 50-μl aliquot of this suspension was then boiled in […] of sample buffer as above.
Tris-Tricine polyacrylamide gel electrophoresis was performed by loading appropriately diluted samples on to 10% to 20% gradient gels (Novex, San Diego, Calif.) followed by transfer on to 0.2-μm nitrocellulose membrane (Bio-Rad, Hercules, Calif.). Aβ was detected by using monoclonal antibody W02, which detects residues 5 through 8, […] (or another suitable antibody) in conjunction with horseradish peroxidase-conjugated rabbit anti-mouse IgG (Dako, Denmark), and visualized by using enhanced chemiluminescence (eg ECL; Amersham Life Science, Buckinghamshire, UK). Each gel included three lanes containing 0.5, 1, and 2 ng of synthetic Aβ40 (Keck Laboratory, Yale University, New Haven, Conn.) as reference standards.
Blot films were scanned by using a suitable imaging system such as the UVP gel documentation system, and densitometry performed using suitable software, eg UVP Labworks. The dynamic range of the film/scanner was determined by using a step tablet (No. 911ST600, Kodak, Rochester N.Y.), a calibrated film exposed by the manufacturer to provided steps of known increasing intensity. The quantifiable range of signal intensity for densitometric analysis of the mono- and dimeric Aβ bands was based on the comparison with a curve obtained by scanning and densitometry of the step tablet.
All samples were analyzed at least twice, and gel loadings and dilutions were adjusted to fit within the quantifiable region of the standard curve. The proportion of ‘soluble’ to ‘insoluble’ Aβ may be used to determine the efficiency of extraction of a test compound compared with the efficiency of a known compound. The insoluble Aβ being comprised of the pelletable fraction derived from the insoluble amyloid plaque from the above cortical samples and the soluble fraction comprising monomeric and/or oligomeric soluble Aβ.

[7] = concentration required to inhibit 50% of Abeta H2O2 production, read-out: H2O2 IC50
[8] = max effect across the concentration range, referenced to baseline PBS

Row | Structure (SMILES) | Mice plasma concentration [1] | Cytotox (% viable) Neuronal cells at 1 μM [2] [%] | Cytotox (% viable) Neuronal cells at 10 μM [2] [%] | Disaggregation % Aggregate reduction at 5 μM [3] [%] | EC50 ([3]; Abeta:Zn 25:50 μM aggregates) [nM] | Cytotox (% viable) M17 cells at 1 μM [4] [%] | Cytotox (% viable) M17 cells at 10 μM [4] [%] | Toxicity at 30 mg/kg [5] | Mice plasma concentration at 120 mg/kg ([1]; 120 mg/kg) [ng/mL] | IC50 (Aβ 1-42; [7]) [nM] | BAS max effect [6, 8] [%] | IC50 (Aβ 1-42) [nM] | BAS max effect [6] | Disaggregation EC50 ([3]; Abeta:Zn 25:50 μM aggregates) | Mice plasma concentration at 10 mg/kg ([1]; oral dose 10 mg/kg) | Toxicity at 10 mg/kg ([5]; 10 mg/kg)
1 | Br.CC(C)n1cnc2c(O)c(Cl)cc(Cl)c2c1=O [PB 1108] | Up to 383 ng/ mL ng/mL | 104 | 71 | 46.5 | > 20000 | 94.3 | 74.5 | 10 days, none | – | – | – | – | – | – | – | –
2 | CCc1c(O)c(O)cc[n+]1CC.[Cl-] [PB 1270] | ≤ 493.7 ng/mL | – | – | – | – | 102.8 | 108.3 | 10 days, none | ≤ 4455 | – | – | – | – | – | – | –
3 | O=c1c(-c2ccc(Cl)cc2)cnc2c(O)c(I)ccn12 [PB 1063] | Up to 450 ng/ mL in mice ng/mL | 41 | 33 | 40.5 | 19700 | – | – | 10 days, mild toxic signs | – | – | – | – | – | – | – | –
4 | Cc1ccccc1-c1cc(I)c(O)c2ncccc12 [PB 861] | – | 99 | 38 | 31.4 | – | – | – | – | – | < 910 | 439 | – | – | – | – | –
5 | Oc1cccc2cccnc12 [PB 42] | – | 93 | 36 | – | – | – | – | – | – | – | – | 700 | BAS: 227% (1 μM- 100 μM) | Inactive | – | –
6 | Oc1cccc2ccc(-c3ccccn3)nc12 [PB 1006] | – | 107 | 75 | 49.5 | 5270 | – | – | – | – | 530 | 463 | – | – | – | – | –
7 | CCCn1cnc2c(O)c(I)ccc2c1=O [PB 1119] | Up to 1096 ng/ mL ng/mL | – | – | 51.5 | 2720 | – | – | 10 days, none | – | 280 | – | – | – | – | – | –
8 | CCCCc1cnc2c(O)cccn2c1=O [PB 1144] | – | – | – | 15.5 | 9100 | 73.6 | 37 | 10 days, none | – | 320 | – | – | – | – | – | –
9 | Oc1c(Cl)cc(Cl)c2cccnc12 [PB 45] | – | 98 | 75 | 36.1 | 8500 | – | – | – | – | 400 | 387 | – | – | – | – | –
10 | CC(C)Cn1cnc2c(O)c(I)ccc2c1=O [PB 1152] | – | – | – | 56 | > 20000 | 95.7 | 71.2 | – | – | 310 | – | – | – | – | At 10 mg/kg: Up to 309 ng/ml ng/mL | At 10 mg/kg 10 days, none
11 | COc1ccc(-n2cnc3c(O)c(Cl)cc(Cl)c3c2=O)cn1 [PB 1093] | Up to 80 ng/ mL ng/mL | 122 | 93 | 16 | > 20000 | – | – | 10 days, none | – | – | – | – | – | – | – | –
12 | CN(C)Cc1cnc2c(Cl)cc(Cl)c(O)c2n1.Cl [PB 1066] | Up to 1000 ng/mL in mice | 92 | 95 | 35 | > 50000 | – | – | – | – | > 10000 | – | – | – | – | – | –
13 | CCn1nccc1-n1cnc2c(O)c(Cl)cc(Cl)c2c1=O [PB 1088] | Up to 3896 ng/ mL ng/mL | 102 | 94 | 16.4 | > 20000 | – | – | 10 days, none | – | – | – | – | – | – | – | –
14 | CCn1cnc2c(O)c(I)ccc2c1=O [PB 1123] | – | – | – | 25 | 910 | – | – | 10 days, none | – | 290 | – | – | – | – | – | –
15 | NCc1ccc2cccc(O)c2n1 [PB 968] | – | 101 | 97 | 31.6 | 16300 | – | – | – | – | 260 | 390 | – | – | – | – | –
16 | Cc1ccc(-n2cnc3c(O)c(Cl)cc(Cl)c3c2=O)nc1 [PB 1089] | Up to 39 ng/ mL ng/mL | 96 | 83 | 16.4 | > 20000 | – | – | 10 days, none | – | – | – | – | – | – | – | –
17 | Oc1c(Br)cc(Br)c2cccnc12 [PB 47] | – | 100 | 94 | 50 | 5000 | – | – | – | – | 500 | 412 | – | – | – | – | –
18 | CN(C)Cc1ccc2c(Cl)cc(I)c(O)c2n1 [PB 1177] | – | – | – | 79 | 2400 | 97.9 | 24.4 | 1 day, 3/4 deaths | – | 290 | – | – | – | – | – | –
19 | O=c1c2c(Cl)cc(Cl)c(O)c2ncn1CCc1ccccn1 [PB 1091] | Up to 59 ng/ mL ng/mL | 100 | 92 | 23.4 | > 20000 | – | – | 10 days, none | – | – | – | – | – | – | – | –
